The results in this text go back to the NIST ThermoML archive (doi:10.1016/j.fluid.2008.06.003).

The structures appear in SMILES notation. ± gives the expanded uncertainty stated by the source.

Series [1] can be described thus: refractive index (Na D-line) (dimensionless). The conditions noted are these: 298.15 K; 101.33 kPa; Liquid; Standard Abbe refractometry.
The conditions of series [2]: 298.15 K, 101.33 kPa, Liquid.

By refractive index is commonly meant a measure of how strongly the sample bends light. The mass density is the mass of a sample divided by its volume. Take `CCCCCCn1cc[n+](C)c1.F[P-](F)(F)(F)(F)F` [1-hexyl-3-methylimidazolium hexafluorophosphate]: the refractive index in series [1] amounted to 1.41787 ± 0.001. Besides, the mass density in series [2] (Vibrating tube method) amounted to 1293.7 ± 9.1 kg/m3.
For `CCCCCCCC[n+]1ccn(C)c1.F[P-](F)(F)(F)(F)F` [1-octyl-3-methylimidazolium hexafluorophosphate] the same measures were 1.42302 ± 0.001 and 1235.7 ± 8.3 kg/m3.
`CCO` [ethanol]: in series [1], the refractive index worked out at 1.35929 ± 0.00031. In series [2], the mass density is reported as 785.1 ± 0.5 kg/m3.
For `CCCCCCC` [heptane] the same measures were 1.38517 ± 0.00037 and 679.5 ± 1 kg/m3.
Consider `CCCCCC` [hexane], for which the refractive index in series [1] amounted to 1.37217 ± 0.00037. Also, the mass density in series [2] amounted to 654.9 ± 1.1 kg/m3.
